Assay results: patent US20230026808A1, “COMPOUNDS, COMPOSITIONS, AND METHODS FOR TREATING ISCHEMIA-REPERFUSION INJURY AND/OR LUNG INJURY” (YALE UNIVERSITY, priority 2019, published 2023)

What was measured:
Format in all cases: cell-based
[1] = system: primary cultured mouse lung endothelial cells; assay: H2O2 on primary cultured mouse lung endothelial cells (TEER, AKT phosphorylation); conditions: H2O2 at low concentrations
[2] = system: mouse pulmonary endothelial cells; assay: TEER of mouse endothelial cells co-cultured with neutrophils; conditions: fMLP-stimulated neutrophils; catalase 100 U/ml
Description: ECIS 8W10E+ arrays (Applied BioPhysics) were coated with 10 μg/ml of poly-D-lysine (PDL) and washed with sterile water. Complete EBM-2 media (300 μl) was added to each well for a quick impedance background check. Subsequently, immortalized mouse pulmonary endothelial cells were seeded in a density of 60,000 cells/well in 300 μl EBM-2 medium in the coated arrays and incubated them at 37° C. in a CO2 incubator. Electrical resistance of the cell layer was recorded continuously on an ECIS system (Applied BioPhysics) until a stable resistance of approximately 600-700 ohms was achieved, after which media were removed from wells and replaced with 100 μl of assay buffer (Hanks buffer with Ca^2+ and Mg^2+0.25% BSA). Cells were allowed to re-equilibrate at 37° C. for 2 hours, before 1 μl of SOD (60 U/ml), catalase (100 U/ml), or mock were added to wells for 30 min followed by addition of 50 μl of mouse neutrophils in assay buffer containing 5 μM fMLP. Data were collected real-time throughout the experiment. All ECIS measurements were analyzed at an AC frequency of 4 kHz, which was identified as the most sensitive frequency for this cell type by frequency scans along an entire frequency range (1 kHz-64 kHz). The TEER values were normalized against those co-cultured with WT neutrophils treated with mock.

[3] = system: mouse primary lung endothelial cells; assay: Bi-layer co-culture of neutrophils with endothelial cells, AKT phosphorylation; conditions: fMLP-stimulated neutrophils; SOD 60 U/ml, catalase 100 U/ml
Description: Mouse primary lung endothelial cells (MLEC) were first plated on the outside of the polycarbonate membrane (25,000 cells/cm^2) of the Transwell inserts (24-well type, 0.4-μm pore size, Corning, Inc. 353095), and placed upside down in the wells of the culture plate. After the cells had adhered, the Transwell inserts were inverted and reinserted into the wells of the plate. The medium was replaced 24 h after seeding with serum-free medium. SOD (60 U/ml), catalase (100 U/ml), or mock were added to the lower chambers 2 h later for 30 min. Mouse neutrophils stimulated with 5 μM fMLP were then plated on the top surface of the insert (6×10^6 cells/cm^2) for 30 min. At the end of the incubation period, neutrophils on the top side of the inserts were removed by cotton swabs, and endothelial cells on the other side of the inserts were lysed with SDS-PAGE sample buffer for Western analysis.

| Compound | AKT phosphorylation [1] | trans-endothelial electrical resistance (TEER) [1] | difference in TEER between DKO and WT neutrophil co-culture [2] | phospho-AKT elevation by co-cultured MAP3K2/3 DKO neutrophils [3] |
| --- | --- | --- | --- | --- |
| OO [H2O2] | stimulates AKT phosphorylation | enhanced trans-endothelial electrical resistance (TEER) | – | – |
| catalase | – | – | abrogated | abrogated |
